Reference: patent publication US12303845B2, “Method for crystallization of active pharmaceutical ingredients” (Nanoform Finland Oyj, priority 2023, dated 2025)

Assays:
Format in all cases: physicochemical
[1] = Crystallization of amorphous nanosized API in aqueous polymer solution, polymorph/crystallinity by XRD; set-up: key to Polymorph: bulk = same as the API before conversion to amorphous nanoparticles
Method: XRPD measurements were carried out using the Malvern PANalytical Empyrean X-ray diffractometer equipped with a Cu Kα (1.54 Å) source, MultiCore optics and a solid-state PIXcel3D detector. By using Kapton tape the samples were attached onto aluminum or polycrystalline silicon sample holders. Dried slurries were measured without further sample preparation under Kapton tape and suspensions were filtered, dried, and filters were attached with double sided tape. The samples were measured in the reflection geometry in a spinning measurement stage. The measurement range was 5-40 (°2θ). The step size and time per step values were varied depending on the counts per second obtained.
Determination of crystallization of API nanoparticles was evaluated via kinetic study of suspension. Accordingly, XRD measurement was done for suspension in different time points.
Amorphous API nanoparticles (budesonide, ezetimibe, ceritinib, and apalutamide) were added as dry powders to aqueous polymer solutions. The mixtures were either • (i) mixed with a magnetic stirrer and ultrasonicated until API was completely surrounded by water (wetted). The stirring was continued for 16-24 h at ambient temperature or • (ii) blended with a metal spatula and allowed to stay at room temperature for 18-24 h.
The suspensions formed were analyzed after 18-24 h. SEM and XRD samples were prepared as described above.

[2] = SEM of crystallized suspensions and dried products (crystal size grade, particle size); set-up: key: 5 = nanocrystals; 1 = large crystals
Method: SEM images were captured using the Zeiss Sigma 300 VP SEM instruments. Samples were dispersed into water and filtered with 0.1 μm filter. Filters were dried, transferred to SEM sample holders, and coated with a 5 nm thick layer of platinum. Amorphous API nanoparticles (budesonide, ezetimibe, ceritinib, and apalutamide) were added as dry powders to aqueous polymer solutions. The mixtures were either • (i) mixed with a magnetic stirrer and ultrasonicated until API was completely surrounded by water (wetted). The stirring was continued for 16-24 h at ambient temperature or • (ii) blended with a metal spatula and allowed to stay at room temperature for 18-24 h. The suspensions formed were analyzed after 18-24 h. SEM and XRD samples were prepared as described above. Suspension comprising nanosized APIs prepared as shown above were dried in a vacuum desiccator overnight. The solid materials were grounded to produce powders. The powders were analyzed on XRD and SEM. The powders comprising nanosized APIs were used in the stability, permeability, and dissolution tests as described above.

[3] = Stability tests of solid material (SEM, XRD, HPLC); settings: materials prepared according to the disclosure; up to T30; crystallinity confirmed by XRD
Method: Solid material was weighted in separate vials (approx. 150 mg of material in each) and transferred to stability chambers. Three conditions were applied: ambient conditions (material in closed vial at RT), 25° C./65% RH and 40° C./75% RH. Material was analyzed at T0 as freshly prepared, T7 ([…]), T14 ([…]) and T30 (30 d) after the initiation of stability studies. SEM, XRD and dissolution/permeability studies were used to evaluate the crystallinity, particle size/morphology and performance of the material.

[4] = Dissolution studies (Pion Rainbow, FaSSIF / SGF-FaSSIF); settings: composition of the disclosure vs bulk ezetimibe; powders resuspended in aq. 1% PVPVA; FaSSIF and SGF-FaSSIF
Method: The dissolution properties were measured with a Pion Rainbow R2D instrument (Pion Inc UK Ltd, Forest Row, UK). The suspensions were prepared at concentration of 5 mg/mL in 1% PVPVA suspension vehicle loaded at 40 μg/mL (ezetimibe) or 30 μg/ml (apalutamide). Fasted simulated intestinal fluid (FaSSIF) media pH 6.5 was used for dissolution studies of Ezetimibe. Dissolution studies for Apalutamide was done in biphasic mode starting in Simulated gastric media (SGF) (0.025 M HCl pH 1.6) for 15 min. Thereafter, the content of the SGF was converted to FaSSIF medium pH 6.5 by addition of 10 mL of FaSSIF concentrate media. The temperature was set to 37° C. and stirring rate to 150 rpm. API concentrations were continuously monitored with a fiber optical UV-Vis probes path length. UV-Vis spectra were collected in 30-sec intervals using the Pion Rainbow Dynamic with either 10 mm tips for Ezetimibe or 5 mm tips for Apalutamide. The API concentration was calculated based on a standard curve using 2nd derivative data transformation (stock solution 5 mg/mL in ethanol of respective API) at a range of 293-320 nm wavelength for both Ezetimibe and Apalutamide).

[5] = HPMC 1 wt.-%, SLS 0.2 wt.-%, mAPI 25 mg/g
[6] = HPMC 1 wt.-%, no SLS, mAPI 25 mg/g
[7] = HPMC 2.5 wt.-%, SLS 0.2 wt.-%, mAPI 25 mg/g
[8] = HPMC 2.5 wt.-%, no SLS, mAPI 25 mg/g
[9] = HPMC 5 wt.-%, SLS 0.2 wt.-%, mAPI 25 mg/g
[10] = HPMC 5 wt.-%, no SLS, mAPI 25 mg/g
[11] = PVP K30 1 wt.-%, no SLS, mAPI 25 mg/g
[12] = PVP K30 2.5 wt.-%, no SLS, mAPI 25 mg/g
[13] = PVP K30 5 wt.-%, no SLS, mAPI 25 mg/g
[14] = PVPVA 1 wt.-%, SLS 0.2 wt.-%, mAPI 25 mg/g
[15] = PVPVA 1 wt.-%, no SLS, mAPI 25 mg/g polymer solution
[16] = PVPVA 2.5 wt.-%, SLS 0.2 wt.-%, mAPI 25 mg/g
[17] = PVPVA 2.5 wt.-%, no SLS, mAPI 25 mg/g
[18] = PVPVA 5 wt.-%, SLS 0.2 wt.-%, mAPI 25 mg/g
[19] = PVPVA 5 wt.-%, no SLS, mAPI 25 mg/g
[20] = PVPVA 15 wt.-%, no SLS, mAPI 150 mg/g
[21] = PVPVA 15 wt.-%, no SLS, mAPI 300 mg/g
[22] = PVPVA 20 wt.-%, no SLS, mAPI 100 mg/g
[23] = PVPVA 20 wt.-%, no SLS, mAPI 200 mg/g
[24] = PVPVA 20 wt.-%, no SLS, mAPI 400 mg/g
[25] = PVPVA 25 wt.-%, no SLS, mAPI 125 mg/g
[26] = PVPVA 25 wt.-%, no SLS, mAPI 250 mg/g
[27] = Poloxamer 407 1 wt.-%, no SLS, mAPI 25 mg/g
[28] = Poloxamer 407 2.5 wt.-%, no SLS, mAPI 25 mg/g
[29] = Poloxamer 407 5 wt.-%, no SLS, mAPI 25 mg/g

## O=C1[C@H](CC[C@H](O)c2ccc(F)cc2)[C@@H](c2ccc(O)cc2)N1c1ccc(F)cc1 [Eze, ezetimibe]
[1]; [5]
  Polymorph: bulk
[1]; [6]
  Polymorph: hydrate
[1]; [7]
  Polymorph: amorphous
[1]; [8]
  Polymorph: hydrate
[1]; [9]
  Polymorph: amorphous
[1]; [10]
  Polymorph: hydrate
[1]; [11]
  Polymorph: bulk
[1]; [12]
  Polymorph: bulk
[1]; [13]
  Polymorph: bulk
[1]; [14]
  Polymorph: bulk
[1]; [15]
  Polymorph: bulk
[1]; [16]
  Polymorph: bulk
[1]; [17]
  Polymorph: bulk
[1]; [18]
  Polymorph: hydrate
[1]; [19]
  Polymorph: bulk
[1]; [20]
  Polymorph: hydrate
[1]; [21]
  Polymorph: hydrate
[1]; [22]
  Polymorph: hydrate
[1]; [23]
  Polymorph: hydrate
[1]; [24]
  Polymorph: hydrate
[1]; [25]
  Polymorph: hydrate
[1]; [26]
  Polymorph: hydrate
[1]; [27]
  Polymorph: bulk
[1]; [28]
  Polymorph: bulk
[1]; [29]
  Polymorph: bulk
[1]; suspension in 20 wt.-% aq. PVPVA, API:polymer ratio 1:1
  time from contacting until crystal formation is observed in XRD diffractograms: > 9 h
[2]; [5]
  Grade (SEM, visual inspection): 2
[2]; [6]
  Grade (SEM, visual inspection): 2
[2]; [7]
  Grade (SEM, visual inspection): 2
[2]; [8]
  Grade (SEM, visual inspection): 2
[2]; [9]
  Grade (SEM, visual inspection): 2
[2]; [10]
  Grade (SEM, visual inspection): 2
[2]; [11]
  Grade (SEM, visual inspection): 3
[2]; [12]
  Grade (SEM, visual inspection): 3
[2]; [13]
  Grade (SEM, visual inspection): 3
[2]; [14]
  Grade (SEM, visual inspection): 2
[2]; [15]
  Grade (SEM, visual inspection): 3
[2]; [16]
  Grade (SEM, visual inspection): 4
[2]; [17]
  Grade (SEM, visual inspection): 2
[2]; [18]
  Grade (SEM, visual inspection): 5
[2]; [19]
  Grade (SEM, visual inspection): 2
[2]; [20]
  Grade (SEM, visual inspection): 5
[2]; [21]
  Grade (SEM, visual inspection): 5
[2]; [22]
  Grade (SEM, visual inspection): 5
[2]; [23]
  Grade (SEM, visual inspection): 5
[2]; [24]
  Grade (SEM, visual inspection): 5
[2]; [25]
  Grade (SEM, visual inspection): 5
[2]; [26]
  Grade (SEM, visual inspection): 5
[2]; [27]
  Grade (SEM, visual inspection): 1
[2]; [28]
  Grade (SEM, visual inspection): 1
[2]; [29]
  Grade (SEM, visual inspection): 1
[3]
  Stability of nanocrystalline material over the stability study: stable over the whole stability study
[4]
  dissolution versus bulk material: dissolves significantly faster
